Assay results from PMC10682394, “A papain-like cysteine protease-released small signal peptide confers wheat resistance to wheat yellow mosaic virus” (Nature Communications, 2023).
Peptide text beside a SMILES is read from it. * marks the point of attachment. AMC = Cc1cc(=O)oc2cc(N*)ccc12; Cbz = O=C(OCc1ccccc1)*

Target: T1, TaRD21A (TaRD21A^S; TaRD21A^R in A96S rows) (Triticum aestivum, UniProt A0A3B6DKH2)
T1 construct: gene LOC123054921; GST fusion from E. coli BL21 (purified), or RFP fusion expressed in N. benthamiana leaves (apoplastic fluid); active bands 25-40 kDa
Test: fluorescent substrate assay, purified TaRD21A^S-GST
Type: biochemical
Conditions: 10 uM substrate

T1 sequence (A0A3B6DKH2 24-463, stated change not applied): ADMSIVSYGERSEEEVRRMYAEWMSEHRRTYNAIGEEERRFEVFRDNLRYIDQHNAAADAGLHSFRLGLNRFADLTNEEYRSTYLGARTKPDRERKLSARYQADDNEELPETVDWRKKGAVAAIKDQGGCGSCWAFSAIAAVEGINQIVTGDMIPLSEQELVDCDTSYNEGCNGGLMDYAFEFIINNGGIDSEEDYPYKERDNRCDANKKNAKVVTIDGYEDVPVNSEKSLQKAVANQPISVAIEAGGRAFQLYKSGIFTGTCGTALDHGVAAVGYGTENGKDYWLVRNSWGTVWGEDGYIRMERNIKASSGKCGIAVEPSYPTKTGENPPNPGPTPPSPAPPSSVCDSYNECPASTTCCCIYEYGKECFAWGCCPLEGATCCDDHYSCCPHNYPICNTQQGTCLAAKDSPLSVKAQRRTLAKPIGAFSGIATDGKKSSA

Row | Compound | fluorescent substrate assay, purified TaRD21A^S-GST (RR motif) | fluorescent substrate assay, purified TaRD21A^S-GST (FR motif)
1 | Cc1cc(=O)oc2cc(NC(=O)[C@H](CCCNC(=N)N)NC(=O)[C@H](CCCNC(=N)N)NC(=O)OCc3ccccc3)ccc12 [Z-Arg-Arg-AMC] (Cbz-Arg-Arg-{AMC}) | examined using fluorescent substrates containing RR/FR motifs | –
2 | Cc1cc(=O)oc2cc(NC(=O)[C@H](CCCNC(=N)N)NC(=O)[C@H](Cc3ccccc3)NC(=O)OCc3ccccc3)ccc12 [Z-Phe-Arg-7-amido-4-methylcoumarin] (Cbz-Phe-Arg-{AMC}) | – | examined using fluorescent substrates containing RR/FR motifs
